For one assay, the target named is BRAF (V600E) (Homo sapiens, UniProt P15056, V600E). Kind of assay: KD BRAF (V600E) (Table 1). It is filed as binding.
For assay [1], the system named is P-ERK (ERK phospho-T202/Y204) in A375 cells expressing V600E mutated BRAF. Nature of the assay: HTRF assay for P-ERK determination in A375 cells (BRAF inhibition). It is filed as cell-based. Conditions: Homo sapiens, A-375, P-ERK level, drug incubation 1 hour, DMSO = 100%, 10 μM Dabrafenib = 0%. The source says: (§1) A375 is a cellular cancer model expressing V600E mutated BRAF and HCT116 a cellular cancer model expressing WT BRAF. First generation BRAF inhibitors such as e.g. dabrafenib induce a paradox effect on tumour cells in that they inhibit the growth of V600E mutated BRAF cells (such as e.g. A375), while they activate growth in WT BRAF cells (such as e.g. HCT 116). ERK 1,2 phosphorylation (terminal member of the phosphorylation cascade of the MAPK pathway) is hereafter reported as main readout for the activation status of the MAPK pathway. DMEM no-phenol red medium supplemented with L-glutamine was purchased from (Thermo Fisher Scientific). Fetal bovine serum (FBS) was purchased from VWR. Advanced ERK phospho-T202/Y204 kit—10,000 tests was purchased from Cisbio cat #64AERPEH. A375 (catalog #CRL-1619) and HCT116 (catalog #CCL-247) cells were originally obtained from American type Culture Collection (ATCC) and banked by the Roche repository. 384-Well microplates utilized were purchased from Greiner Bio-One, 384-well, (With Lid, HiBase, Low volume cat 784-080).
(§2) Prior to the assay, A375 and HCT116 cell lines are maintained in DMEM no-phenol red medium supplemented with 10% fetal bovine serum (FBS). Following compound treatment, P-ERK levels are determined by measuring FRET fluorescence signal induced by selective binding of 2 antibodies provided in the mentioned kit (Cisbio cat #64AERPEH) on ERK protein when phosphorylated at Thr202/Tyr204. Briefly, 8000 cells/well in 12 μl media/well are plated in the 384-well plate and left overnight in the incubator (at 37° C. with 5% CO2-humidified atmosphere), the following day the plate is treated in duplicate with test compounds, dabrafenib and PLX8394 (the latter two as controls) at the following final drug concentrations: 10 μM-3 μM 1 μM-0.3 μM-0.1 μM-0.03 μM-0, 01 μM-0.003 μM-0.001 μM, all wells are subjected to DMSO normalization and drug incubation occurs for 1 hour. Then, […] of a 4× lysis buffer supplied with the kit are added to the wells, the plate is then centrifuged for 30 second (3000 rpm) and incubated on a plate shaker for 1 h at rt.
(§3) At the end of the incubation 4 μL/well of advanced P-ERK antibody solution (prepared according to manufacturer's instruction) followed by 4 μL/well of criptate P-ERK antibody solution (prepared according to manufacturer's instruction) (Cisbio cat #64AERPEH) are added to test wells.
(§4) In order to allow proper data normalization control wells non drug treated reported in the following table are always included in each plate (according to manufacturer's instruction):
(§5) The plate is then centrifuged at 3000 rpm for 30 second, sealed to prevent evaporation and incubated overnight in the dark at room temperature.
(§6) The plate is then analyzed and fluorescence emission value collected through a Pherastast FSX (BMG Labtech) apparatus at […].
(§7) The obtained fluorescence values are processed according to the formula Ratio=[…]*10000 then the average of the ratio on the blank is subtracted to all values.
Data are normalized in the case of A375 cells (BRAF inhibition) considering the average of the ratio (blank subtracted) derived by DMSO only treated cells as 100% and by considering the average of the ratio (blank subtracted) derived by 10 μM Dabrafenib treated cells as 0%. Mean of the normalized points are fitted with sigmoidal curve and IC50 determined.

Assay [2] has as its system P-ERK (ERK phospho-T202/Y204) in HCT116 cells expressing WT BRAF. Nature of the assay: HTRF assay for P-ERK determination in HCT116 cells (BRAF activation). It counts as cell-based. As to conditions: Homo sapiens, HCT-116, drug incubation 1 hour, concentration giving 50% of the maximum activation achieved by Dabrafenib.
Text: as §1, §2, §3, §4, §5, §6, §7
Data are normalized in the case of HCT116 cells (BRAF activation) considering the average of the ratio (blank subtracted) derived by DMSO only treated cells as 0% and by considering the average of the ratio (blank subtracted) derived by Dabrafenib treated cells at the concentration which provides the highest signal as 100%. Individual points are fitted with either sigmoidal or bell shape curves. The EC50 is the concentration at which activation equal to 50% of the maximum activation achieved by Dabrafenib is obtained.

The target of another assay is BRAF (wt) (Homo sapiens, UniProt P15056). Nature of the assay: KD BRAF (wt) (Table 1). It is filed as binding.
Chain of BRAF (wt) (P15056 whole entry): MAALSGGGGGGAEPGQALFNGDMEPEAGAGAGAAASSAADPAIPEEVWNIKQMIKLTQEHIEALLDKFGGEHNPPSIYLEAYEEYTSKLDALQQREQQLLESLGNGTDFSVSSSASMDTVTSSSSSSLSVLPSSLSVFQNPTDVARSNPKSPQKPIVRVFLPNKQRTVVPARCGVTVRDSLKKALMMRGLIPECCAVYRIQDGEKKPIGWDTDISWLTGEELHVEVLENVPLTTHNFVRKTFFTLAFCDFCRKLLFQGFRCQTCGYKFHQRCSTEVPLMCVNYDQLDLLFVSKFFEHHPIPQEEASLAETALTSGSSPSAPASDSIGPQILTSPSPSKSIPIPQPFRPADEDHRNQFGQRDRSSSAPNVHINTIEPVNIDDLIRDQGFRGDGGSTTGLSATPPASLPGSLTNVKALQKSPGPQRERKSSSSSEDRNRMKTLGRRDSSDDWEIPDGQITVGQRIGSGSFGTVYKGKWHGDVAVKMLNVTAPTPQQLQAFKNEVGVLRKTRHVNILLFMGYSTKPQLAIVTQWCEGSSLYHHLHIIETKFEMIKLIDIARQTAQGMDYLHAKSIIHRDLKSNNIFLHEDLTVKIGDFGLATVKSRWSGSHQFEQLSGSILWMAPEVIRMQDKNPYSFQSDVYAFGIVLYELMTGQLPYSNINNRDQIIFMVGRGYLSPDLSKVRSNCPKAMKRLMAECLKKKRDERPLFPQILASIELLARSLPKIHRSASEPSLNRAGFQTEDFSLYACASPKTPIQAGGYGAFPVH

The structures appear in SMILES notation.

Chain of BRAF (V600E) (P15056 whole entry V600E): as the sequence (P15056 whole entry) above, with V600E counted along it

As to `CC(C)(C)OC(=O)N1CCN(C(=O)CCCn2cnc3ccc(Nc4cccc(NS(=O)(=O)N5CC[C@@H](F)C5)c4C#N)cc3c2=O)CC1` [Example 40, tert-butyl 4-[4-[6-[2-cyano-3-[[(3R)-3-fluoropyrrolidin-1-yl]sulfonylamino]anilino]-4-oxo-quinazolin-3-yl]butanoyl]piperazine-1-carboxylate], the Kd at BRAF (V600E) is 7.88 nM; at BRAF (wt), 3.71 nM. In assay [1], the IC50 is 334 nM. Besides, the EC50 in assay [2] is ≥ 10000 nM.

As for `CC(C)(C)OC(=O)N1CCC(CCn2cnc3ccc(Oc4c(F)ccc(NS(=O)(=O)N5CC[C@@H](F)C5)c4C#N)cc3c2=O)CC1` [Example 2, tert-butyl 4-[2-[6-[2-cyano-6-fluoro-3-[[(3R)-3-fluoropyrrolidin-1-yl]sulfonylamino]phenoxy]-4-oxo-quinazolin-3-yl]ethyl]piperidine-1-carboxylate], the Kd came to 21.4 nM on BRAF (V600E) and 18.9 nM on BRAF (wt). Besides, half-maximal inhibition in assay [1] (IC50) required 30.3 nM. In assay [2], this molecule gave an EC50 of 2250 nM.

On to `CCN(C)S(=O)(=O)Nc1ccc(F)c(Oc2ccc3ncn(CCC4CCN(C(=O)OC(C)(C)C)CC4)c(=O)c3c2)c1C#N` [Example 3, tert-butyl 4-[2-[6-[2-cyano-3-[[ethyl(methyl)sulfamoyl]amino]-6-fluoro-phenoxy]-4-oxo-quinazolin-3-yl]ethyl]piperidine-1-carboxylate], for which the Kd was 162 nM at BRAF (V600E) and 78.3 nM on BRAF (wt). Also, the IC50 in assay [1] worked out at 41 nM. This molecule also came in with an EC50 in assay [2] of 6400 nM.

As for `CC(C)(C)OC(=O)NCCCn1cnc2ccc(Oc3c(F)ccc(NS(=O)(=O)N4CCC4)c3C#N)cc2c1=O` [Example 9, tert-butyl N-[3-[6-[3-(azetidin-1-ylsulfonylamino)-2-cyano-6-fluoro-phenoxy]-4-oxo-quinazolin-3-yl]propyl]carbamate], the values for the Kd on BRAF (V600E) and at BRAF (wt) were 0.97 nM and 0.69 nM, respectively. The IC50 in assay [1] worked out at 28.9 nM. The molecule also came in with an EC50 in assay [2] of 624 nM.

For `CCC(C)S(=O)(=O)Nc1ccc(F)c(Oc2ccc3ncn(CCCNC(=O)OC(C)(C)C)c(=O)c3c2)c1C#N` (stereo not drawn) [Example 13, tert-butyl N-[3-[6-[2-cyano-6-fluoro-3-(sec-butylsulfonylamino)phenoxy]-4-oxo-quinazolin-3-yl]propyl]carbamate], the Kd on BRAF (V600E) was 19.3 nM; on BRAF (wt) it was 12.1 nM. Further, the IC50 in assay [1] was 36.3 nM. The same molecule came in with an EC50 in assay [2] of 2820 nM.

Turning to `CC(C)(C)OC(=O)NCCCn1cnc2ccc(Oc3c(F)ccc(NS(=O)(=O)N4CCCC4)c3C#N)cc2c1=O` [Example 5, tert-butyl N-[3-[6-[2-cyano-6-fluoro-3-(pyrrolidin-1-ylsulfonylamino)phenoxy]-4-oxo-quinazolin-3-yl]propyl]carbamate], the Kd at BRAF (V600E) was 2.82 nM; on BRAF (wt) it was 1.35 nM. For the same molecule, the IC50 in assay [1] was 18.1 nM. In addition, the response in assay [2] was half-maximal at 1190 nM (EC50).

On to `CN(Cc1ccc(CCCn2cnc3ccc(Oc4c(F)ccc(NS(=O)(=O)N5CCCC5)c4C#N)cc3c2=O)cc1)C(=O)OC(C)(C)C` [Example 30, tert-butyl N-[[4-[3-[6-[2-cyano-6-fluoro-3-(pyrrolidin-1-ylsulfonylamino)phenoxy]-4-oxo-quinazolin-3-yl]propyl]phenyl]methyl]-N-methyl-carbamate], for which the dissociation constant (Kd) on BRAF (V600E) was 12.1 nM; on BRAF (wt), 6.15 nM. In assay [1], this molecule registered an IC50 of 52.4 nM. The EC50 in assay [2] came out at 455 nM.

As for `CC(C)(C)OC(=O)N1CCN(CCn2cnc3ccc(Oc4c(F)ccc(NS(=O)(=O)N5CC[C@@H](F)C5)c4C#N)cc3c2=O)CC1` [Example 10, tert-butyl 4-[2-[6-[2-cyano-6-fluoro-3-[[(3R)-3-fluoropyrrolidin-1-yl]sulfonylamino]phenoxy]-4-oxo-quinazolin-3-yl]ethyl]piperazine-1-carboxylate], the values for the dissociation constant (Kd) on BRAF (V600E) and on BRAF (wt) were 4.82 nM and 3.51 nM, respectively. Also, the 50% inhibitory concentration (IC50) in assay [1] worked out at 36.7 nM. In assay [2], this molecule came in with an EC50 of 1530 nM.

As to `CC(C)(C)OC(=O)CCCn1cnc2ccc(Nc3cccc(NS(=O)(=O)N4CC[C@@H](F)C4)c3C#N)cc2c1=O` [Example 35, tert-butyl 4-[6-[2-cyano-3-[[(3R)-3-fluoropyrrolidin-1-yl]sulfonylamino]anilino]-4-oxo-quinazolin-3-yl]butanoate], the values for the Kd at BRAF (V600E) and on BRAF (wt) were 20.9 nM and 7.92 nM, respectively. The same molecule displayed a half-inhibitory concentration (IC50) in assay [1] of 12.9 nM. For the same molecule, in assay [2], the EC50 stood at 7220 nM.

`CC(C)(C)OC(=O)N1CCC(CCn2cnc3ccc(Oc4c(F)ccc(NS(=O)(=O)C5CCC5)c4C#N)cc3c2=O)CC1` [Example 21, tert-butyl 4-[2-[6-[2-cyano-3-(cyclobutylsulfonylamino)-6-fluoro-phenoxy]-4-oxo-quinazolin-3-yl]ethyl]piperidine-1-carboxylate]: the results for the Kd on BRAF (V600E) and on BRAF (wt) were 67.2 nM and 11.7 nM, respectively. In assay [1], this molecule yielded a half-maximal inhibitory concentration (IC50) of 86.8 nM. Moreover, the 50% effective concentration (EC50) in assay [2] was ≥ 10000 nM.

As for `CC(C)(C)OC(=O)N1CCC(CCn2cnc3ccc(Oc4c(F)ccc(NS(=O)(=O)N5CCCCC5)c4C#N)cc3c2=O)CC1` [Example 18, tert-butyl 4-[2-[6-[2-cyano-6-fluoro-3-(1-piperidylsulfonylamino)phenoxy]-4-oxo-quinazolin-3-yl]ethyl]piperidine-1-carboxylate], the Kd was 57.5 nM on BRAF (V600E) and 45.4 nM on BRAF (wt). Also, the IC50 in assay [1] is 158 nM. The same molecule displayed an EC50 in assay [2] of 1460 nM.

Consider `CC(C)(C)OC(=O)N1CCC(CCn2cnc3ccc(Oc4c(F)ccc(NS(=O)(=O)C5CCCC5)c4C#N)cc3c2=O)CC1` [Example 17, tert-butyl 4-[2-[6-[2-cyano-3-(cyclopentylsulfonylamino)-6-fluoro-phenoxy]-4-oxo-quinazolin-3-yl]ethyl]piperidine-1-carboxylate], for which the figures for the Kd at BRAF (V600E) and at BRAF (wt) were 24.6 nM and 12.3 nM, respectively. The same molecule came in with an IC50 in assay [1] of 57.1 nM. In addition, the response in assay [2] was half-maximal at 1140 nM (EC50).

For the molecule `CCN(C)S(=O)(=O)Nc1ccc(F)c(Oc2ccc3ncn(CCN4CCN(C(=O)OC(C)(C)C)CC4)c(=O)c3c2)c1C#N` [Example 27, tert-butyl 4-[2-[6-[2-cyano-3-[[ethyl(methyl)sulfamoyl]amino]-6-fluoro-phenoxy]-4-oxo-quinazolin-3-yl]ethyl]piperazine-1-carboxylate], the Kd was 28.4 nM at BRAF (V600E) and 16.3 nM at BRAF (wt). Also, the IC50 in assay [1] was found to be 6.99 nM. This molecule had a 50% effective concentration (EC50) in assay [2] of 6860 nM.

Take `CC(C)(C)OC(=O)N1CCC(CCn2cnc3ccc(Oc4c(F)ccc(NS(=O)(=O)N5CCCC5)c4C#N)cc3c2=O)CC1` [Example 7, tert-butyl 4-[2-[6-[2-cyano-6-fluoro-3-(pyrrolidin-1-ylsulfonylamino)phenoxy]-4-oxo-quinazolin-3-yl]ethyl]piperidine-1-carboxylate]: the results for the Kd on BRAF (V600E) and on BRAF (wt) were 20.8 nM and 12.2 nM, respectively. This molecule also showed an IC50 in assay [1] of 52 nM. For the same molecule, the midpoint of the response in assay [2], the EC50, lay at 2100 nM.

`CC(=O)N(C)CCCn1cnc2ccc(Oc3c(F)ccc(NS(=O)(=O)N4CCCC4)c3C#N)cc2c1=O` [Example 26, N-[3-[6-[2-cyano-6-fluoro-3-(pyrrolidin-1-ylsulfonylamino)phenoxy]-4-oxo-quinazolin-3-yl]propyl]-N-methyl-acetamide]: the dissociation constant Kd at BRAF (V600E) came out at 0.55 nM; on BRAF (wt), 0.32 nM. Moreover, the IC50 in assay [1] is 20.5 nM. Further, it took 4260 nM to reach a half-maximal effect in assay [2] (EC50).
